In patent publication US20140357713A1, “ANTIMICROBIAL COMPOUNDS AND METHODS OF USE” (NexMed Holdings, Inc., priority 2012, published 2014):
Like-named read-outs stand apart in the source and are kept apart here.

Key:
Escherichia coli = assay: Extended time kill study, Example 34 (0 to 24 h); type: cell-based
Method: (§1) Time kill studies. Strain suspensions were prepared as described above for the MIC test, and strain suspensions and compound solutions were mixed in the same volume. Samples were removed at specified times including 0 min, 30 sec, 1 min and 5 mins, were diluted in the test medium and streaked on agar. Colonies were counted after 24 to 48 hrs of incubation.
(§2) The time kill studies of Example 33 were extended for five compounds (Nex-59, Nex-60, Nex-61, Nex-62, and Nex-88) using the same methods at longer time periods and at higher multiples of MIC. Nex-88 is a code number for DDAIP.HCl from a different supplier.

Candida albicans = assay: Extended time kill study, Example 34 (0 to 24 h); type: cell-based
Method: as §1, §2

Aspergillus niger = assay: Extended time kill study, Example 34 (0 to 24 h); type: cell-based
Method: as §1, §2

[1] = test system: Staphulococcus aureus (ATCC 29213); assay: Minimum inhibitory concentration (MIC) assay, Example 33; type: cell-based, Staphylococcus aureus; conditions: Staphylococcus aureus
Method in brief: (§3)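 Following CLSI guidelines, each bacterial strain was taken from a twice-restreaked agar colony and suspended to 0.5 McFarland density. After a 1:100 dilution it was mixed 1:2 with 2-fold serially diluted compound in CAMHB. The MIC was read after incubation at 35 °C.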

[2] = test system: Pseudomonas aeruginosa (ATCC 27853); assay: as above; type: cell-based; conditions: Pseudomonas aeruginosa
Method in brief: as §3

[3] = test system: Escherichia coli (ATCC 25922); assay: as above; type: cell-based; conditions: Escherichia coli
Method in brief: as §3

- MIC ([1]; ATCC29213, Table 19 summary, read-out: MIC): 50 µg/mL
- MIC ([1]; ATCC29213, n = 1, read-out: MIC S. aureus): 50 µg/mL
- MIC ([1]; ATCC29213, n = 2, read-out: MIC S. aureus): 50 µg/mL
- MIC ([2]; ATCC27853, Table 19 summary, read-out: MIC): 6250 µg/mL
- MIC ([2]; ATCC27853, n = 1, read-out: MIC P. aeruginosa): 6250 µg/mL
- MIC ([2]; ATCC27853, n = 2, read-out: MIC P. aeruginosa): 6250 µg/mL
- MIC ([3]; ATCC25922, Table 19 summary of Example 33 and Example 35, read-out: MIC): 780 µg/mL
- MIC ([3]; ATCC25922, n = 1, read-out: MIC E. coli): 780 µg/mL
- MIC ([3]; ATCC25922, n = 2, read-out: MIC E. coli): 1560 µg/mL
- melting point: 134 to 139 °C
SMILES: CCCCCCCCCCCCOC(=O)C(C)NCCO.Cl (stereo not shown) [Nex-61, Dodecyl 2-((2-hydroxyethyl)amino)propanoate hydrochloride]
- Viable counts, Escherichia coli time kill study (Escherichia coli; 1 × MIC, 1 h): 1.70 Log10 CFU/mL
- Viable counts, Escherichia coli time kill study (Escherichia coli; 1 × MIC, 2 h): 1.60 Log10 CFU/mL
- Viable counts, Escherichia coli time kill study (Escherichia coli; 1 × MIC, 4 h): 3.16 Log10 CFU/mL
- Viable counts, Escherichia coli time kill study (Escherichia coli; 1 × MIC, 6 h): 4.38 Log10 CFU/mL
- Viable counts, Escherichia coli time kill study (Escherichia coli; 1 × MIC, 24 h): 7.75 Log10 CFU/mL
- Viable counts, Escherichia coli time kill study (Escherichia coli; 1×MIC, time 0): 5.08 Log10 CFU/mL
- Viable counts, Escherichia coli time kill study (Escherichia coli; 2 × MIC, 1 h): <1 Log10 CFU/mL
- Viable counts, Escherichia coli time kill study (Escherichia coli; 2 × MIC, 2 h): <1 Log10 CFU/mL
- Viable counts, Escherichia coli time kill study (Escherichia coli; 2 × MIC, 4 h): <1 Log10 CFU/mL
- Viable counts, Escherichia coli time kill study (Escherichia coli; 2 × MIC, 6 h): <1 Log10 CFU/mL
- Viable counts, Escherichia coli time kill study (Escherichia coli; 2 × MIC, 24 h): <1 Log10 CFU/mL
- Viable counts, Escherichia coli time kill study (Escherichia coli; 2 × MIC, time 0): 5.03 Log10 CFU/mL
- Viable counts, Escherichia coli time kill study (Escherichia coli; 4 × MIC, 1 h): <1 Log10 CFU/mL
- Viable counts, Escherichia coli time kill study (Escherichia coli; 4 × MIC, 2 h): <1 Log10 CFU/mL
- Viable counts, Escherichia coli time kill study (Escherichia coli; 4 × MIC, 4 h): <1 Log10 CFU/mL
- Viable counts, Escherichia coli time kill study (Escherichia coli; 4 × MIC, 6 h): <1 Log10 CFU/mL
- Viable counts, Escherichia coli time kill study (Escherichia coli; 4 × MIC, 24 h): <1 Log10 CFU/mL
- Viable counts, Escherichia coli time kill study (Escherichia coli; 4 × MIC, time 0): 5.05 Log10 CFU/mL
- Viable counts in Log10 CFU/mL (Candida albicans; 1 × MIC, 1 h): 5.37 Log10 CFU/mL
- Viable counts in Log10 CFU/mL (Candida albicans; 1 × MIC, 2 h): 5.37 Log10 CFU/mL
- Viable counts in Log10 CFU/mL (Candida albicans; 1 × MIC, 4 h): 5.32 Log10 CFU/mL
- Viable counts in Log10 CFU/mL (Candida albicans; 1 × MIC, 6 h): 5.54 Log10 CFU/mL
- Viable counts in Log10 CFU/mL (Candida albicans; 1 × MIC, 24 h): >6 Log10 CFU/mL
- Viable counts in Log10 CFU/mL (Candida albicans; 1 × MIC, 0 h): 5.43 Log10 CFU/mL
- Viable counts in Log10 CFU/mL (Candida albicans; 2 × MIC, 1 h): <3 Log10 CFU/mL
- Viable counts in Log10 CFU/mL (Candida albicans; 2 × MIC, 2 h): <3 Log10 CFU/mL
- Viable counts in Log10 CFU/mL (Candida albicans; 2 × MIC, 4 h): <2.70 Log10 CFU/mL
- Viable counts in Log10 CFU/mL (Candida albicans; 2 × MIC, 6 h): <2.70 Log10 CFU/mL
- Viable counts in Log10 CFU/mL (Candida albicans; 2 × MIC, 24 h): >6 Log10 CFU/mL
- Viable counts in Log10 CFU/mL (Candida albicans; 2 × MIC, 0 h): 5.48 Log10 CFU/mL
- Viable counts in Log10 CFU/mL (Candida albicans; 4 × MIC, 1 h): <3 Log10 CFU/mL
- Viable counts in Log10 CFU/mL (Candida albicans; 4 × MIC, 2 h): <3 Log10 CFU/mL
- Viable counts in Log10 CFU/mL (Candida albicans; 4 × MIC, 4 h): <2.70 Log10 CFU/mL
- Viable counts in Log10 CFU/mL (Candida albicans; 4 × MIC, 6 h): <2.70 Log10 CFU/mL
- Viable counts in Log10 CFU/mL (Candida albicans; 4 × MIC, 24 h): <1 Log10 CFU/mL
- Viable counts in Log10 CFU/mL (Candida albicans; 4 × MIC, 0 h): 5.39 Log10 CFU/mL
- Viable counts in Log10 CFU/mL (Aspergillus niger; 1 × MIC, 1 h): 5.48 Log10 CFU/mL
- Viable counts in Log10 CFU/mL (Aspergillus niger; 1 × MIC, 2 h): 5.36 Log10 CFU/mL
- Viable counts in Log10 CFU/mL (Aspergillus niger; 1 × MIC, 4 h): 5.18 Log10 CFU/mL
- Viable counts in Log10 CFU/mL (Aspergillus niger; 1 × MIC, 6 h): 4.95 Log10 CFU/mL
- Viable counts in Log10 CFU/mL (Aspergillus niger; 1 × MIC, 24 h): 4.48 Log10 CFU/mL
- Viable counts in Log10 CFU/mL (Aspergillus niger; 1 × MIC, 0 h): 5.28 Log10 CFU/mL
- Viable counts in Log10 CFU/mL (Aspergillus niger; 2 × MIC, 1 h): 5.52 Log10 CFU/mL
- Viable counts in Log10 CFU/mL (Aspergillus niger; 2 × MIC, 2 h): 5.57 Log10 CFU/mL
- Viable counts in Log10 CFU/mL (Aspergillus niger; 2 × MIC, 4 h): 4.48 Log10 CFU/mL
- Viable counts in Log10 CFU/mL (Aspergillus niger; 2 × MIC, 6 h): 4.90 Log10 CFU/mL
- Viable counts in Log10 CFU/mL (Aspergillus niger; 2 × MIC, 24 h): 3 Log10 CFU/mL
- Viable counts in Log10 CFU/mL (Aspergillus niger; 2 × MIC, 0 h): 5.33 Log10 CFU/mL
- Viable counts in Log10 CFU/mL (Aspergillus niger; 4 × MIC, 1 h): 5.34 Log10 CFU/mL
- Viable counts in Log10 CFU/mL (Aspergillus niger; 4 × MIC, 2 h): 5.41 Log10 CFU/mL
- Viable counts in Log10 CFU/mL (Aspergillus niger; 4 × MIC, 4 h): 5.28 Log10 CFU/mL
- Viable counts in Log10 CFU/mL (Aspergillus niger; 4 × MIC, 6 h): 4.95 Log10 CFU/mL
- Viable counts in Log10 CFU/mL (Aspergillus niger; 4 × MIC, 24 h): <2 Log10 CFU/mL
- Viable counts in Log10 CFU/mL (Aspergillus niger; 4 × MIC, 0 h): 5.26 Log10 CFU/mL
